Experimental data: patent US20110038885A1, “CHEMOKINE ANALOGS” (priority 2007, published 2011)
Bridge positions count the residues as written; N and C are the ends. Square brackets hold non-standard residues; d marks the D form. Peptide text beside a SMILES is read from it. * marks the point of attachment. Octanoyl = CCCCCCCC(=O)*; AEEA = NCCOCCOCC(=O)O; Aoc = NCCCCCCCC(=O)O; Ahx = NCCCCCC(=O)O; GABA = NCCCC(=O)O

Assays:
MCP-1 = assay: In vitro chemotaxis (trans-well migration) v MCP-1; format: cell-based, human
Summary of the method: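 Trans-well migration toward IL-8 or MCP-1 placed below, with agent added to THP-1 cells (10^4-10^6) in the top well and incubation at 37° C (e.g. 4 hours). MTT absorbance at 595 nm, interpolated on a cell standard curve, gives migrated cell numbers; TGFβ-type negative control and cytotoxicity check included.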

IL-8 = assay: In vitro chemotaxis, inhibition v IL-8; format: cell-based, human; parameters: concentration or dose not given beside the values
Description: To determine whether an agent inhibits a chemokine-induced activity, such as macrophage recruitment, varying amounts of the agent are mixed with cells in the presence of a known chemoattractant. For example, a range of known concentrations of an agent, e.g., a chemokine peptide, is incubated with a defined number (e.g., 10^4-10^6) of human THP-1 monocyte cells in individual wells of the top compartment of a trans-well plate. Chemokine, at a concentration known to cause significant migration of THP-1 cells in the trans-well migration assay, is placed in the lower compartment of a trans-well plate. Cells are then incubated at 37° C. for a period sufficient to allow migration, e.g., 4 hours. After incubation, the cells are gently removed from the top of the filter with a pipette, 20 μl of 20 mM EDTA in simple PBS is added into each top well, and incubated for 20 minutes at 4° C. The filter is carefully flushed with media using a gentle flow, and removed. A standard curve consisting of a two-fold dilution series of THP-1 cells (in 29 μl) is placed to accurately quantify the number of cells that have migrated. Migrated cells are stained with 3 μl of MTT stock dye solution which is added directly into each well (5 mg/ml in RPMI-1640 without phenol red) (Sigma Chemical Co., St. Louis, Mo., USA) and incubated at 37° C. for 4 hours. The media is carefully aspirated from each well, and the converted dye is solubilized by 20 μl of DMSO. Absorbance of converted dye is measured at a wavelength of 595 nm using an ELISA plate reader. The number of migrated cells in each well is then determined by interpolation of the standard curve (see also Imai et al., J. Biol. Chem., 272:15036, 1997). Any method suitable for counting cells can be used, for example, counting with a hemocytometer, incubation of the cells with MTT (see above), or FACS analysis. A negative control assay is also performed, using TGFβ or another non-chemokine chemoattractant (e.g., IL1β or TNFα). To assess whether the agent is cytotoxic, the same concentrations of agent are incubated with THP-1 cells. Agents which 1) are not cytotoxic at levels which inhibit migration, 2) are ineffective at inhibiting the negative control-induced migration, and 3) reduce or inhibit chemokine-induced THP-1 migration, are agents which fall within the scope of the invention.

SMILES | EC50 (MCP-1) | v IL-8 inhibition (%) (IL-8)
CC[C@H](C)[C@@H]1NC(=O)[C@H](Cc2c[nH]c3ccccc23)NC(=O)[C@H](CCCCN)NC(=O)[C@H](CCC(N)=O)NC(=O)[C@H](CCCCN)NC(=O)[C@@H](N)CSSC[C@@H](C(N)=O)NC(=O)[C@H](CCC(N)=O)NC1=O [Example 49, c(Cys-Lys-Gln-Lys-Trp-Ile-Gln-Cys)-NH2] (H-CKQKWIQC-NH2; disulfide 1-8) | 0.1 µM | 72.6%
CC[C@H](C)[C@@H]1NC(=O)[C@H](Cc2c[nH]c3ccccc23)NC(=O)[C@H](CCCCN)NC(=O)[C@H](CCC(N)=O)NC(=O)[C@@H](N)CSSC[C@@H](C(N)=O)NC(=O)[C@H](CCC(N)=O)NC1=O [Example 50, c(Cys-Gln-Lys-Trp-Ile-Gln-Cys)-NH2] (H-CQKWIQC-NH2; disulfide 1-7) | 0.025 µM | 104.8%
CC[C@H](C)[C@@H]1NC(=O)[C@H](Cc2c[nH]c3ccccc23)NC(=O)[C@@H](NC(=O)[C@@H](N)CCCCN)CSSC[C@@H](C(N)=O)NC(=O)[C@H](CCC(N)=O)NC1=O [Example 51, Lys-c(Cys-Trp-Ile-Gln-Cys)-NH2] (H-KCWIQC-NH2; disulfide 2-6) | 0.08 µM | 115.9%
CC[C@@H](C)[C@H]1NC(=O)[C@@H](CCC(N)=O)NC(=O)[C@H](N)CSSC[C@H](C(=O)NCCOCCOCC(=O)NCCCCCCCC(=O)O)NC(=O)[C@@H](CC(C)C)NC(=O)[C@@H](CC(=O)O)NC(=O)[C@H]2CCCN2C(=O)[C@@H](CCCCN)NC(=O)[C@@H](CCC(N)=O)NC(=O)[C@@H](CCCCN)NC(=O)[C@@H](Cc2c[nH]c3ccccc23)NC1=O [Example 138, c(D-Cys-D-Gln-D-Ile-D-Trp-D-Lys-D-Gln-D-Lys-D-Pro-D-Asp-D-Leu-D-Cys)-Doc-Aoc-OH] (H-[dC][dQ][dI][dW][dK][dQ][dK][dP][dD][dL][dC][AEEA][Aoc]-OH; disulfide 1-11) | 0.02 µM | 98.4%
CC[C@@H](C)[C@H]1NC(=O)[C@@H](CCC(N)=O)NC(=O)[C@H](N)CSSC[C@H](C(=O)NCCCCCCCC(=O)O)NC(=O)[C@@H](CC(C)C)NC(=O)[C@@H](CC(=O)O)NC(=O)[C@H]2CCCN2C(=O)[C@@H](CCCCN)NC(=O)[C@@H](CCC(N)=O)NC(=O)[C@@H](CCCCN)NC(=O)[C@@H](Cc2c[nH]c3ccccc23)NC1=O [Example 139, c(D-Cys-D-Gln-D-Ile-D-Trp-D-Lys-D-Gln-D-Lys-D-Pro-D-Asp-D-Leu-D-Cys)-Aoc-OH] (H-[dC][dQ][dI][dW][dK][dQ][dK][dP][dD][dL][dC][Aoc]-OH; disulfide 1-11) | 0.1 µM | 47.0%
CC[C@@H](C)[C@H]1NC(=O)[C@@H](CCC(N)=O)NC(=O)[C@H](N)CSSC[C@H](C(=O)N[C@H](C(=O)N[C@@H](CCC(=O)O)C(=O)NCCCCCCCC(=O)O)[C@@H](C)CC)NC(=O)[C@@H](CC(C)C)NC(=O)[C@@H](CC(=O)O)NC(=O)[C@H]2CCCN2C(=O)[C@@H](CCCCN)NC(=O)[C@@H](CCC(N)=O)NC(=O)[C@@H](CCCCN)NC(=O)[C@@H](Cc2c[nH]c3ccccc23)NC1=O [Example 140, c(D-Cys-D-Gln-D-Ile-D-Trp-D-Lys-D-Gln-D-Lys-D-Pro-D-Asp-D-Leu-D-Cys)-Ile-Glu-Aoc-OH] (H-[dC][dQ][dI][dW][dK][dQ][dK][dP][dD][dL][dC]IE[Aoc]-OH; disulfide 1-11) | 0.4 µM | 43.4%
CC[C@@H](C)[C@H]1NC(=O)[C@@H](CCC(N)=O)NC(=O)[C@H](N)CSSC[C@H](C(=O)N[C@@H](C(=O)N[C@H](CCC(=O)O)C(=O)NCCCCCCCC(=O)O)C(C)C)NC(=O)[C@@H](CC(C)C)NC(=O)[C@@H](CC(=O)O)NC(=O)[C@H]2CCCN2C(=O)[C@@H](CCCCN)NC(=O)[C@@H](CCC(N)=O)NC(=O)[C@@H](CCCCN)NC(=O)[C@@H](Cc2c[nH]c3ccccc23)NC1=O [Example 141, c(D-Cys-D-Gln-D-Ile-D-Trp-D-Lys-D-Gln-D-Lys-D-Pro-D-Asp-D-Leu-D-Cys)-D-Val-D-Glu-Aoc-OH] (H-[dC][dQ][dI][dW][dK][dQ][dK][dP][dD][dL][dC][dV][dE][Aoc]-OH; disulfide 1-11) | 0.33 µM | 27.5%
CC[C@@H](C)[C@H]1NC(=O)[C@@H](CCC(N)=O)NC(=O)[C@H](N)CSSC[C@H](C(=O)NCCCC(=O)O)NC(=O)[C@@H](CC(C)C)NC(=O)[C@@H](CC(=O)O)NC(=O)[C@H]2CCCN2C(=O)[C@@H](CCCCN)NC(=O)[C@@H](CCC(N)=O)NC(=O)[C@@H](CCCCN)NC(=O)[C@@H](Cc2c[nH]c3ccccc23)NC1=O [Example 142, c(D-Cys-D-Gln-D-Ile-D-Trp-D-Lys-D-Gln-D-Lys-D-Pro-D-Asp-D-Leu-D-Cys)-Gaba-OH] (H-[dC][dQ][dI][dW][dK][dQ][dK][dP][dD][dL][dC][GABA]-OH; disulfide 1-11) | 0.02 µM | 107.3%

Now from value to molecule, other results behind:

EC50 (MCP-1) | SMILES | v IL-8 inhibition (%) (IL-8)
0.03 µM | CC[C@@H](C)[C@H]1NC(=O)[C@@H](CCC(N)=O)NC(=O)[C@H](N)CSSC[C@H](C(=O)NCCCCCC(=O)O)NC(=O)[C@@H](CC(C)C)NC(=O)[C@@H](CC(=O)O)NC(=O)[C@H]2CCCN2C(=O)[C@@H](CCCCN)NC(=O)[C@@H](CCC(N)=O)NC(=O)[C@@H](CCCCN)NC(=O)[C@@H](Cc2c[nH]c3ccccc23)NC1=O [Example 143, c(D-Cys-D-Gln-D-Ile-D-Trp-D-Lys-D-Gln-D-Lys-D-Pro-D-Asp-D-Leu-D-Cys)-Ahx-OH] (H-[dC][dQ][dI][dW][dK][dQ][dK][dP][dD][dL][dC][Ahx]-OH; disulfide 1-11) | 103.5%
3 µM | CC[C@@H](C)[C@H]1NC(=O)[C@@H](CCC(N)=O)NC(=O)[C@H](N)CSSC[C@H](C(=O)N[C@@H](CC(=O)O)C(=O)NCCCCCCCC(=O)O)NC(=O)[C@@H](CC(C)C)NC(=O)[C@@H](CC(=O)O)NC(=O)[C@H]2CCCN2C(=O)[C@@H](CCCCN)NC(=O)[C@@H](CCC(N)=O)NC(=O)[C@@H](CCCCN)NC(=O)[C@@H](Cc2c[nH]c3ccccc23)NC1=O [Example 144, c(D-Cys-D-Gln-D-Ile-D-Trp-D-Lys-D-Gln-D-Lys-D-Pro-D-Asp-D-Leu-D-Cys)-Asp-Aoc-OH] (H-[dC][dQ][dI][dW][dK][dQ][dK][dP][dD][dL][dC]D[Aoc]-OH; disulfide 1-11) | 25.4%
0.2 µM | CC[C@@H](C)[C@H]1NC(=O)[C@@H](CCC(N)=O)NC(=O)[C@H](N)CSSC[C@H](C(=O)N[C@@H](CCC(=O)O)C(=O)NCCCCCCCC(=O)O)NC(=O)[C@@H](CC(C)C)NC(=O)[C@@H](CC(=O)O)NC(=O)[C@H]2CCCN2C(=O)[C@@H](CCCCN)NC(=O)[C@@H](CCC(N)=O)NC(=O)[C@@H](CCCCN)NC(=O)[C@@H](Cc2c[nH]c3ccccc23)NC1=O [Example 145, c(D-Cys-D-Gln-D-Ile-D-Trp-D-Lys-D-Gln-D-Lys-D-Pro-D-Asp-D-Leu-D-Cys)-Glu-Aoc-OH] (H-[dC][dQ][dI][dW][dK][dQ][dK][dP][dD][dL][dC]E[Aoc]-OH; disulfide 1-11) | 23.8%
0.5 µM | CCCCCCCC(=O)NCCCC[C@H](NC(=O)[C@@H](CC(=O)O)NC(=O)[C@H]1CSSC[C@@H](N)C(=O)N[C@H](CCC(N)=O)C(=O)N[C@H]([C@H](C)CC)C(=O)N[C@H](Cc2c[nH]c3ccccc23)C(=O)N[C@H](CCCCN)C(=O)N[C@H](CCC(N)=O)C(=O)N[C@H](CCCCN)C(=O)N2CCC[C@@H]2C(=O)N[C@H](CC(=O)O)C(=O)N[C@H](CC(C)C)C(=O)N1)C(=O)O [Example 147, c(D-Cys-D-Gln-D-Ile-D-Trp-D-Lys-D-Gln-D-Lys-D-Pro-D-Asp-D-Leu-D-Cys)-D-Asp-Lys(Nε-octanoyl)-OH] (H-[dC][dQ][dI][dW][dK][dQ][dK][dP][dD][dL][dC][dD]K(Octanoyl)-OH; disulfide 1-11) | 29.0%
0.066 µM | CCCCCCCC(=O)NCCCC[C@H](NC(=O)[C@H]1CSSC[C@@H](N)C(=O)N[C@H](CCC(N)=O)C(=O)N[C@H]([C@H](C)CC)C(=O)N[C@H](Cc2c[nH]c3ccccc23)C(=O)N[C@H](CCCCN)C(=O)N[C@H](CCC(N)=O)C(=O)N[C@H](CCCCN)C(=O)N2CCC[C@@H]2C(=O)N[C@H](CC(=O)O)C(=O)N[C@H](CC(C)C)C(=O)N1)C(=O)O [Example 149, c(D-Cys-D-Gln-D-Ile-D-Trp-D-Lys-D-Gln-D-Lys-D-Pro-D-Asp-D-Leu-D-Cys)-Lys(Nε-octanoyl)-OH] (H-[dC][dQ][dI][dW][dK][dQ][dK][dP][dD][dL][dC]K(Octanoyl)-OH; disulfide 1-11) | 106.2%
